Test results reported in patent US6503542B2, “Herbal compositions for treating immunological disorders” (GloboAsia, L.L.C., priority 2000, dated 2003).

Experiments:
Assay type in all cases: in vivo, BALB/c mice
Conditions in all cases: FIG. 10; comparison with conventional asthma drugs
IFN-γ = test: ELISA determination of IFN-γ in fluid of pulmonary alveoli of Der p 5 sensitized mice
Source text: (§1) The effects of the STA-36 and STA-4 herbal composition as well as individual herbs on suppression of allergen-induced immunoglobulin G (IgG), immunoglobulin E (IgE), interleukin-4 (IL-4), and interferon γ (IFN-γ) were investigated using BALB/c mice sensitized with D.P. (Dermatophagoides pteronyssimus) allergen “Der p 5”. Dermatophagoides pteronyssimus is the house dust mite which acts as an antigen and produces an allergic asthmatic reaction in atopic person.
(§2) Female BALB/c mice aged between 4 and 6 weeks and weighed about 20 g were obtained from the National Animal-breeding Center, Republic of China and used in the studies. Mice were age- and sex- matched for each experiment.
(§3) BALB/c mice were initially intraperitoneally sensitized with 10 μg of Dermatophagoides pteronyssimus group 5 (“Der p 5”) allergen and 4 mg of aluminium hydroxide (Wyeth Pharmaceuticals, Punchbowl, Australia). Seven (7) days after the first sensitization, mice, except the placebo control group, were fed with STA-36 and STA-4 herbal compositions until the end of the twenty-first day.
(§4) At the end of the twenty first day, the mice were given a second booster injection of Der p 5. Forty eight (48) hours after the second booster injection, mice were placed in a round plastic container where the mice were further challenged by 0.1% Der p 5 spray.
(§5) Several hours after the challenge, the mouse was anaesthetized using 100 mg/ml phenobarbital. Blood was collected from the tail vein or heart. […]
(§6) One hundred (100) μl of the supernatant from the fluid of pulmonary alveoli were then added to the microwells, together with cytokine standard solution, for overnight reaction at 4° C. […] Plates were read in a microplate autoreader (ELISA reader, Dynex MRX) at 405 nm.
(§7) All of the data contained in the experiments were calculated as “mean±SEM.” Trachea resistance change induced by acetylcholine after converted to PC 100 was measured as μg/kg. […]

IgE = test: ELISA determination of Der p 5-specific IgE in serum of Der p 5 sensitized mice
Source text: as §1, §2, §3, §4
(§8) Several hours after the challenge, the mouse was anaesthetized using 100 mg/ml phenobarbital. […]
(§9) The amount of Der p 5-specific IgG and IgE were determined by Enzyme Linked Immunosorbent Assay (ELISA). […]
(§10) Avidin-alkaline phosphatase (1:1000) (Strptavidin-AP, PharMinge 13043E) was then added and incubated for 1 hour at 25° C., followed by six (6) washes. […] Plates were read in a microplate autoreader (ELISA reader, Dynex MRX) at 405 nm. Readings were referenced to commercial isotypes standards which were mouse anti-TNP mAb, IgG1 (107.3), IgG2a (G155-178), and IgE (IgE-3).
as §7

IgG2a = test: ELISA determination of Der p 5-specific IgG (IgG2a) in serum of Der p 5 sensitized mice
Source text: as §1, §2, §3, §4, §8, §9, §10, §7

IL-4 = test: ELISA determination of IL-4 in fluid of pulmonary alveoli of Der p 5 sensitized mice
Source text: as §1, §2, §3, §4, §5, §6, §7

Structure (SMILES) | effect on IFN-γ vs control (IFN-γ) | effect on IgE vs control (IgE) | effect on IgG (IgG2a) vs control (IgG2a) | effect on IL-4 vs control (IL-4)
Cn1c(=O)c2[nH]cnc2n(C)c1=O.Cn1c(=O)c2[nH]cnc2n(C)c1=O.NCCN [aminophline] | only STA-4 demonstrated significant decreased in IgE and significant increase in IgG, IL-4, and IFN-γ | only STA-4 demonstrated significant decreased in IgE | only STA-4 demonstrated significant decreased in IgE and significant increase in IgG | only STA-4 demonstrated significant decreased in IgE and significant increase in IgG, IL-4
CN1CCC(=C2c3ccccc3CC(=O)c3sccc32)CC1 [ketotifen] | only STA-4 demonstrated significant decreased in IgE and significant increase in IgG, IL-4, and IFN-γ | only STA-4 demonstrated significant decreased in IgE | only STA-4 demonstrated significant decreased in IgE and significant increase in IgG | only STA-4 demonstrated significant decreased in IgE and significant increase in IgG, IL-4
C[C@]12C=CC(=O)C=C1CC[C@@H]1[C@@H]2[C@@H](O)C[C@@]2(C)[C@H]1CC[C@]2(O)C(=O)CO [prednisolone] | only STA-4 demonstrated significant decreased in IgE and significant increase in IgG, IL-4, and IFN-γ | only STA-4 demonstrated significant decreased in IgE | only STA-4 demonstrated significant decreased in IgE and significant increase in IgG | only STA-4 demonstrated significant decreased in IgE and significant increase in IgG, IL-4
